# Measurements taken from PubChem BioAssay (NCI).
#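 96-well plates; 48 h exposure; 5 concentrations. Endpoints by linear interpolation between flanking doses. Not reached: highest tested concentration assigned. Definition used: TGI = concentration required for complete inhibition of growth.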
# Columns and labels:
# Assay in all cases: NCI anticancer screen, dose series, 48 h
# [1] = system: 786-0 renal
# [2] = system: A498 renal
# [3] = system: A549 NSCLC
# [4] = system: ACHN renal
# [5] = system: CAKI-1 renal
# [6] = system: CCRF-CEM leukemia
# [7] = system: COLO 205 colon
# [8] = system: DLD-1 colon
# [9] = system: DMS 114 small cell lung
# [10] = system: DMS 273 small cell lung
# [11] = system: EKVX NSCLC
# [12] = system: HCC-2998 colon
# [13] = system: HCT-116 colon
# [14] = system: HCT-15 colon
# [15] = system: HL-60(TB) leukemia
# [16] = system: HOP-18 NSCLC
# [17] = system: HOP-62 NSCLC
# [18] = system: HOP-92 NSCLC
# [19] = system: HT29 colon
# [20] = system: IGROV1 ovarian
# [21] = system: K-562 leukemia
# [22] = system: KM12 colon
# [23] = system: LOX IMVI melanoma
# [24] = system: M14 melanoma
# [25] = system: M19-MEL melanoma
# [26] = system: MALME-3M melanoma
# [27] = system: MOLT-4 leukemia
# [28] = system: NCI-H226 lung
# [29] = system: NCI-H23 lung
# [30] = system: NCI-H460 lung
# [31] = system: OVCAR-3 ovarian
# [32] = system: OVCAR-4 ovarian
# [33] = system: OVCAR-5 ovarian
# [34] = system: OVCAR-8 ovarian
# [35] = system: RPMI-8226 leukemia
# [36] = system: RXF 393 renal
# [37] = system: RXF-631 renal
# [38] = system: SF-268 CNS
# [39] = system: SF-295 CNS
# [40] = system: SF-539 CNS
# [41] = system: SK-MEL-2 melanoma
# [42] = system: SK-MEL-28 melanoma
# [43] = system: SK-MEL-5 melanoma
# [44] = system: SK-OV-3 ovarian
# [45] = system: SN12C renal
# [46] = system: SNB-19 CNS
# [47] = system: SNB-75 CNS
# [48] = system: SNB-78 CNS
# [49] = system: SW-620 colon
# [50] = system: TK-10 renal
# [51] = system: U251 CNS
# [52] = system: UACC-257 melanoma
# [53] = system: UACC-62 melanoma
# [54] = system: UO-31 renal
# [55] = system: KM20L2 colon
# [56] = system: LXFL 529 NSCLC
# [57] = system: NCI-H522 lung
# [58] = system: XF 498 CNS
compound,measurement,setting,value
O=C(C#Cc1c[nH]c(=O)[nH]c1=O)c1ccccc1,TGI,[1],24.6 µM
same,TGI,[2],29.1 µM
same,TGI,[3],64.1 µM
same,TGI,[4],29.6 µM
same,TGI,[5],32.3 µM
same,TGI,[6],7.8 µM
same,TGI,[7],19.6 µM
same,TGI,[8],23.4 µM
same,TGI,[9],35.4 µM
same,TGI,[10],28.9 µM
same,TGI,[11],24.9 µM
same,TGI,[12],32.4 µM
same,TGI,[13],22 µM
same,TGI,[14],24.9 µM
same,TGI,[15],14.3 µM
same,TGI,[16],29.2 µM
same,TGI,[17],36.1 µM
same,TGI,[18],27 µM
same,TGI,[19],53.7 µM
same,TGI,[20],32.5 µM
same,TGI,[21],14.4 µM
same,TGI,[22],29 µM
same,TGI,[23],16.3 µM
same,TGI,[24],18 µM
same,TGI,[25],27.1 µM
same,TGI,[26],15.2 µM
same,TGI,[27],7.96 µM
same,TGI,[28],63.9 µM
same,TGI,[29],27.6 µM
same,TGI,[30],28.6 µM
same,TGI,[31],5.99 µM
same,TGI,[32],27.1 µM
same,TGI,[33],33.1 µM
same,TGI,[34],22.4 µM
same,TGI,[35],30.1 µM
same,TGI,[36],6.05 µM
same,TGI,[37],27.4 µM
same,TGI,[38],26.8 µM
same,TGI,[39],> 100 µM
same,TGI,[40],14.5 µM
same,TGI,[41],24.8 µM
same,TGI,[42],22.9 µM
same,TGI,[43],25.2 µM
same,TGI,[44],62.9 µM
same,TGI,[45],15.9 µM
same,TGI,[46],32 µM
same,TGI,[47],33.1 µM
same,TGI,[48],38.5 µM
same,TGI,[49],18.9 µM
same,TGI,[50],26.7 µM
same,TGI,[51],26.9 µM
same,TGI,[52],23.8 µM
same,TGI,[53],21.8 µM
same,TGI,[54],31.8 µM
COc1ccc(-c2c(N)[n+]([O-])c3cc(C)c(C)cc3[n+]2[O-])cc1OC,TGI,[1],> 100 µM
same,TGI,[2],> 100 µM
same,TGI,[3],> 100 µM
same,TGI,[4],> 100 µM
same,TGI,[5],> 100 µM
same,TGI,[6],> 100 µM
same,TGI,[7],50.3 µM
same,TGI,[8],> 100 µM
same,TGI,[9],67.8 µM
same,TGI,[10],> 100 µM
same,TGI,[11],> 100 µM
same,TGI,[12],> 100 µM
same,TGI,[14],> 100 µM
same,TGI,[15],> 100 µM
same,TGI,[16],> 100 µM
same,TGI,[17],> 100 µM
same,TGI,[19],> 100 µM
same,TGI,[20],> 100 µM
same,TGI,[21],> 100 µM
same,TGI,[22],> 100 µM
same,TGI,[55],> 100 µM
same,TGI,[23],> 100 µM
same,TGI,[56],> 100 µM
same,TGI,[24],> 100 µM
same,TGI,[25],> 100 µM
same,TGI,[26],> 100 µM
same,TGI,[27],> 100 µM
same,TGI,[28],> 100 µM
same,TGI,[29],> 100 µM
same,TGI,[30],> 100 µM
same,TGI,[57],37.8 µM
same,TGI,[31],> 100 µM
same,TGI,[32],> 100 µM
same,TGI,[33],> 100 µM
same,TGI,[34],> 100 µM
same,TGI,[35],> 100 µM
same,TGI,[37],38.8 µM
same,TGI,[38],> 100 µM
same,TGI,[39],> 100 µM
same,TGI,[40],> 100 µM
same,TGI,[41],> 100 µM
same,TGI,[42],> 100 µM
same,TGI,[43],74.3 µM
same,TGI,[44],> 100 µM
same,TGI,[45],> 100 µM
same,TGI,[46],> 100 µM
same,TGI,[47],> 100 µM
same,TGI,[48],> 100 µM
same,TGI,[49],> 100 µM
same,TGI,[50],> 100 µM
same,TGI,[51],> 100 µM
same,TGI,[52],> 100 µM
same,TGI,[53],> 100 µM
same,TGI,[54],> 100 µM
same,TGI,[58],> 100 µM
